Data on eight compounds can be found in PubChem BioAssay (NCI).

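Exposure lasted 48 hours, with cells grown in 96-well plates and compounds tested at five concentrations. The concentration for 50% growth inhibition is given as GI50. TGI: concentration producing complete growth inhibition.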 Some results are limits rather than exact numbers.

Test systems include SF-295 CNS; UACC-62 melanoma; EKVX NSCLC; CAKI-1 renal; SK-MEL-5 melanoma; OVCAR-3 ovarian; LOX IMVI melanoma; MOLT-4 leukemia; M14 melanoma; MDA-MB-435.
Common to all, as to assay: growth of human tumour cells (NCI), 48 h

For the compound `Cn1cnc([N+](=O)[O-])c1Sc1nc(N)nc2c1ncn2C1CC(O)C(CO)O1` (stereo not drawn), the TGI was more than 100 µM with SF-295 CNS; more than 20.8 µM in the assay with UACC-62 melanoma; more than 100 µM in the assay with EKVX NSCLC; more than 100 µM in the assay with CAKI-1 renal; 22.9 µM with SK-MEL-5 melanoma; more than 36.4 µM in the assay with OVCAR-3 ovarian. The TGI was more than 100 µM with LOX IMVI melanoma, 16.4 µM with MOLT-4 leukemia, more than 58.6 µM with M14 melanoma and more than 58.8 µM in the assay on MDA-MB-435.
On to `CCOC(=O)c1cc2c(cc1Cl)SC(N(c1ccc(OC)cc1)S(=O)(=O)c1ccc(Cl)cc1)=NS2(=O)=O`, for which the GI50 is 54.9 µM with SF-295 CNS; 34.6 µM with UACC-62 melanoma; 41.7 µM in the assay with EKVX NSCLC; 35.8 µM in the assay with CAKI-1 renal; 21.2 µM with SK-MEL-5 melanoma; 22.1 µM in the assay with OVCAR-3 ovarian. The GI50 was 18.7 µM in the assay on LOX IMVI melanoma, 30.7 µM with MOLT-4 leukemia, 38.7 µM with M14 melanoma and 22.1 µM in the assay with MDA-MB-435. In addition, the TGI with SF-295 CNS was more than 100 µM; in the assay with UACC-62 melanoma, more than 100 µM; in the assay with EKVX NSCLC, more than 100 µM; in the assay on CAKI-1 renal it was more than 100 µM; in the assay on SK-MEL-5 melanoma, 54.4 µM; in the assay with OVCAR-3 ovarian it was 54.4 µM. Moreover, the TGI in the assay with LOX IMVI melanoma is 38.3 µM; in the assay with MOLT-4 leukemia, more than 100 µM; with M14 melanoma, more than 100 µM; with MDA-MB-435, 57 µM.
Turning to `Clc1ccc(-c2c3c(nn2-c2ccccn2)CCc2ccccc2-3)cc1Cl`, the GI50 with SF-295 CNS was 95.2 µM; with UACC-62 melanoma, more than 100 µM; in the assay on EKVX NSCLC, more than 100 µM; with CAKI-1 renal it was more than 100 µM; with SK-MEL-5 melanoma, more than 100 µM; in the assay with OVCAR-3 ovarian, more than 100 µM. The GI50 is more than 100 µM in the assay with LOX IMVI melanoma, more than 100 µM in the assay on MOLT-4 leukemia, 34 µM in the assay with M14 melanoma and more than 100 µM in the assay on MDA-MB-435. The TGI with SF-295 CNS, with UACC-62 melanoma, in the assay with EKVX NSCLC, with CAKI-1 renal, with SK-MEL-5 melanoma and in the assay with OVCAR-3 ovarian was more than 100 µM in each case. Besides, the TGI with LOX IMVI melanoma, in the assay on MOLT-4 leukemia, with M14 melanoma and with MDA-MB-435 was more than 100 µM each time.
Regarding `CN(Cc1ccccc1)c1ccc(CO)c(Cl)c1`, the GI50 in the assay on SF-295 CNS is 4.25 µM; in the assay with UACC-62 melanoma it was 0.384 µM; in the assay with EKVX NSCLC, 22 µM; in the assay on CAKI-1 renal, 2.93 µM; in the assay with SK-MEL-5 melanoma, 13.6 µM; in the assay with OVCAR-3 ovarian it was 3.36 µM. Also, the GI50 in the assay with LOX IMVI melanoma was 45.8 µM; with MOLT-4 leukemia it was 26.4 µM; in the assay on M14 melanoma it was 29 µM; in the assay on MDA-MB-435, 17.6 µM. The TGI in the assay with SF-295 CNS is more than 76.8 µM; with UACC-62 melanoma it was 3.93 µM; with EKVX NSCLC it was 98.8 µM; with CAKI-1 renal, 50.9 µM; in the assay on SK-MEL-5 melanoma it was 37.5 µM; in the assay on OVCAR-3 ovarian, 12.9 µM. For the same compound, the TGI in the assay with LOX IMVI melanoma was more than 100 µM; in the assay with MOLT-4 leukemia, more than 82.6 µM; in the assay on M14 melanoma, more than 100 µM; in the assay with MDA-MB-435 it was 59.2 µM.
`CC(=O)C1=C(O)C=C2Oc3c(C(=O)/C=C/c4c(Cl)cccc4Cl)c(O)c(C)c(O)c3[C@]2(C)C1=O`: the GI50 in the assay with SF-295 CNS was 0.634 µM; in the assay on UACC-62 melanoma, 0.677 µM; in the assay on EKVX NSCLC it was 1.63 µM; with CAKI-1 renal, 0.832 µM; with SK-MEL-5 melanoma, 1.5 µM; with OVCAR-3 ovarian it was 1.12 µM. Besides, the GI50 in the assay with LOX IMVI melanoma is 1.13 µM; in the assay on MOLT-4 leukemia, 0.666 µM; in the assay with M14 melanoma it was 0.961 µM; with MDA-MB-435 it was 1.81 µM. Besides, the TGI in the assay with SF-295 CNS was 3.17 µM; in the assay on UACC-62 melanoma, 2.8 µM; with EKVX NSCLC, 7.24 µM; with CAKI-1 renal, 8.92 µM; in the assay on SK-MEL-5 melanoma, 3.75 µM; in the assay on OVCAR-3 ovarian, 4.22 µM. Moreover, the TGI with LOX IMVI melanoma turned out to be 3.64 µM; in the assay with MOLT-4 leukemia it was 8.57 µM; in the assay on M14 melanoma, 3.83 µM; with MDA-MB-435, 3.82 µM.
With `O=C1C=CC(=Nc2cc(Br)c(O)c(Br)c2)C=C1`, the GI50 in the assay on SF-295 CNS is 27 µM; in the assay with UACC-62 melanoma it was 25.6 µM; in the assay on EKVX NSCLC it was 52 µM; with CAKI-1 renal, 26.4 µM; in the assay on SK-MEL-5 melanoma, 15.6 µM; in the assay with OVCAR-3 ovarian, 19.7 µM. Also, the GI50 in the assay on LOX IMVI melanoma is 21.6 µM; in the assay on MOLT-4 leukemia, 8.71 µM; in the assay with M14 melanoma it was 23.9 µM; with MDA-MB-435 it was 18.9 µM. Further, the TGI was 96.2 µM with SF-295 CNS; 93.2 µM with UACC-62 melanoma; more than 100 µM in the assay on EKVX NSCLC; 68 µM in the assay with CAKI-1 renal; 32.1 µM with SK-MEL-5 melanoma; more than 100 µM in the assay with OVCAR-3 ovarian. For the same compound, the TGI is 66.6 µM with LOX IMVI melanoma, more than 100 µM with MOLT-4 leukemia, more than 100 µM in the assay on M14 melanoma and more than 100 µM with MDA-MB-435.
With `COc1ccc2ccccc2c1C1NC(=O)c2ccccc2N1` (stereo not drawn), the TGI is more than 100 µM in the assay with EKVX NSCLC; more than 85.2 µM in the assay on CAKI-1 renal; 6.31 µM with SK-MEL-5 melanoma; 1.92 µM in the assay with OVCAR-3 ovarian; 65.2 µM in the assay on LOX IMVI melanoma; 9.2 µM with MOLT-4 leukemia. For the same compound, the TGI with M14 melanoma came to 10.2 µM; in the assay on MDA-MB-435 it was 0.461 µM.
Turning to `CC(=O)OC(C)(C)/C(C)=C/C(=O)O[C@H]1C(=O)O[C@@H]2C[C@H]3[C@H](C)C(=O)C(O[C@@H]4O[C@H](CO)[C@@H](O)[C@H](O)[C@H]4O)=C[C@]3(C)[C@H]3[C@@H](O)[C@H](O)[C@@]4(C(=O)O)OC[C@]32[C@@H]14`, the GI50 in the assay on UACC-62 melanoma was more than 100 µM; with EKVX NSCLC, more than 100 µM; with CAKI-1 renal it was more than 100 µM; in the assay with OVCAR-3 ovarian, 25.9 µM; in the assay on MOLT-4 leukemia, 33.9 µM; in the assay on M14 melanoma it was more than 100 µM. Besides, in the assay on MDA-MB-435, the GI50 is more than 100 µM. Moreover, the TGI in the assay on UACC-62 melanoma, in the assay on EKVX NSCLC, in the assay with CAKI-1 renal, with OVCAR-3 ovarian, in the assay on LOX IMVI melanoma and in the assay with MOLT-4 leukemia was more than 100 µM in each case. For the same compound, the TGI in the assay on M14 melanoma and with MDA-MB-435 was more than 100 µM in each case.
